Test results published in patent publication US4614741A, “Depot antiinflammatory agents” (priority 1983, dated 1986).

Assays:
[1] = test system: carrageenan-induced oedema of the rat paw; test: Inhibition of carrageenan-induced oedema of the rat paw after i.m. depot administration; format: in vivo, rat (male, Bor:WISW (SPF-Cpb))
Experimental: The antioedemic and analgesic effect of the test substances after i.m. administration of an appropriate depot formulation was determined using the carrageenan-induced oedema of the rat paw or using the Randall-Selittotest [Arch. int. Pharmacodyn.
The tests were carried out with male rats [strain: Bor:WISW (SPF-Cpb), weight about 200 g]. The animals receive a single i.m. administration of a depot product, and the antiinflammatory effect was checked on subsequent days by inducing oedema with carrageenan.
The paw volumes were measured by the method of F. Kemper and G. Ameln [Z. ges. exp.
Various doses were administered in a constant volume of 0.03 ml administered per rat (see Table).

[2] = humans; p.o. versus i.m. in aqueous solution; cited from earlier work

O=C(O)c1cc(-c2ccc(F)cc2F)ccc1O [compound 3, 2',4'-Difluoro-4-hydroxy-3-biphenyl-carboxylic acid]
% inhibition of oedema, 2nd day after inj. ([1]; 5 mg/kg, suspension): 26%
% inhibition of oedema, 4th day after inj. ([1]; 5 mg/kg, suspension): 13%

CC(C(=O)O)c1cccc(C(=O)c2ccccc2)c1 (centres unmarked) [compound 13, 2-(m-Benzoylphenyl)-propionic acid]
maximum level in the plasma [2]: nor do the maximum level in the plasma, or the plasma and renal clearance differ

COc1ccc2cc([C@H](C)C(=O)O)ccc2c1 [compound 10, D-2-(6-Methoxy-2-naphthyl)propionic acid]
% inhibition of oedema, 2nd day after inj. ([1]; 2.5 mg/kg, suspension): 42.8%
% inhibition of oedema, 4th day after inj. ([1]; 2.5 mg/kg, suspension): 22.3%

COc1ccc2c(c1)c(CC(=O)O)c(C)n2C(=O)c1ccc(Cl)cc1 [compound 18, 1-(p-Chlorobenzoyl)-5-methoxy-2-methylindole-3-acetic acid]
% inhibition of oedema, 2nd day after inj. ([1]; 10.0 mg/kg, solution): 58.2%
% inhibition of oedema, 2nd day after inj. ([1]; 10.0 mg/kg, suspension): 58.2%
% inhibition of oedema, 4th day after inj. ([1]; 10.0 mg/kg, solution): 29.5%
% inhibition of oedema, 4th day after inj. ([1]; 10.0 mg/kg, suspension): 29.5%

CN1C(C(=O)Nc2ccccn2)=C(O)c2ccccc2S1(=O)=O [compound 22, 4-Hydroxy-2-methyl-N--2-pyridinyl-2H--1,2-benzothiazine-3-carboxamide 1,1-dioxide]
% inhibition of oedema, 2nd day after inj. ([1]; 0.6 mg/kg, solution): 33.2%
% inhibition of oedema, 2nd day after inj. ([1]; 0.6 mg/kg, suspension): 33%
% inhibition of oedema, 4th day after inj. ([1]; 0.6 mg/kg, solution): 39.3%
% inhibition of oedema, 4th day after inj. ([1]; 0.6 mg/kg, suspension): 39%

CC(C)Cc1ccc(C(C)C(=O)O)cc1 (centres unmarked) [compound 11, 2-(p-Isobutylphenyl)-propionic acid]
% inhibition of oedema, 2nd day after inj. ([1]; 13 mg/kg, suspension): 40%
% inhibition of oedema, 4th day after inj. ([1]; 13 mg/kg, suspension): 45%

CN1C(C(=O)Nc2nccs2)=C(O)c2ccccc2S1(=O)=O [compound 21, 4-Hydroxy-2-methyl-N--2-thiazolyl-2H--1,2-benzothiazine-3-carboxamide 1,1-dioxide]
% inhibition of oedema, 2nd day after inj. ([1]; 15 mg/kg, suspension): 42.9%
% inhibition of oedema, 4th day after inj. ([1]; 15 mg/kg, suspension): 30.4%
